Key:
[1] = target: T1, PGE2 receptor (EP3), subtype EP3α (MP660) (Mus musculus, UniProt P30557); experiment: Inhibition of [3H]-PGE2 binding to MP660-transfected COS-1 cell membranes; ligand-binding test; details: for competition for [3H]PGE2 binding: PGE analogues; for competition for [3H]PGE2 binding / potency in competing for [3H]PGE2 binding relative to PGE2: FIG. 2b; for order of inhibition of [3H]PGE2 binding by unlabeled PGs: FIG. 2a
T1 sequence (P30557 1-365): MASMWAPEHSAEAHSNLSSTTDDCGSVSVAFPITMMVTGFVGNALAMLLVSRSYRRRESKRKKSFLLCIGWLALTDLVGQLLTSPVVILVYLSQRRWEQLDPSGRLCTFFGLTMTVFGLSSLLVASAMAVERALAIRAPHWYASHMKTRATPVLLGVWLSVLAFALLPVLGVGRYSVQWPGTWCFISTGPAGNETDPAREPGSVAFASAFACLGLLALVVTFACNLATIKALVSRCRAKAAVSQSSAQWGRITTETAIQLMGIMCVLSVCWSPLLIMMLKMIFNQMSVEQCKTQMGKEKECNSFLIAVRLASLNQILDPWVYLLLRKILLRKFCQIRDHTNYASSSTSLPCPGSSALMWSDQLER
Text: (§1) The cDNA of MP660 was cleaved out with EcoRI and inserted to pcDNAI (Invitrogen) and subcloned, followed by transfection of this plasmid DNA to COS-1 cells by the DEAE-dextran method [D. J. Sussmann and G. Milman, Mol. Cell. Biol., 4, 1641 (1984)]. After 72-hour cultivation, cells were harvested and cell membranes were separated [M. Hirata al., Nature, 349, 617 (1991)].

[2] = target: PGE2 receptor (EP2) (MP412) (Mus musculus, UniProt P32240); experiment: Inhibition of [3H]-PGE2 binding to MP412-transfected COS-1 cell membranes; details: for inhibition of PGE2 binding by subtype ligands: FIG. 8; for order of inhibition of specific [3H]-PGE2 binding by unlabeled PG: FIG. 7
PGE2 receptor (EP2) (MP412), sequence (P32240 whole entry, the tested form may be a part): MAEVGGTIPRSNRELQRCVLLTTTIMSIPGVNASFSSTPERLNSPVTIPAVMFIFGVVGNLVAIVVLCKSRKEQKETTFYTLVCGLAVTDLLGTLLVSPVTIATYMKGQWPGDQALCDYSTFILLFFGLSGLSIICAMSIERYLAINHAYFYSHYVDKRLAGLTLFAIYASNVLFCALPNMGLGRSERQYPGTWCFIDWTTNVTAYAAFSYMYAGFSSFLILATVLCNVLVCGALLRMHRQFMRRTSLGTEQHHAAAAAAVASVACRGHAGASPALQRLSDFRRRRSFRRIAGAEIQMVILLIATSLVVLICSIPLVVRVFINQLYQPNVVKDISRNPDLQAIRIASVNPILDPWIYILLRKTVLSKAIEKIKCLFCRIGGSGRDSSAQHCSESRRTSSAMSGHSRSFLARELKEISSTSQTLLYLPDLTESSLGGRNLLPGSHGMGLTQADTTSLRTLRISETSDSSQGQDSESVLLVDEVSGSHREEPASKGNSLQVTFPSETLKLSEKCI
Protocol: Mouse mastocytoma P-815 cell cDNA library carring cDNAs larger than 2.0 kb was prepared according to Example 1 (2). The probe DNA was prepared by PCR using mouse EP3 cDNA as a template; this 482 bp fragment covers the transmembrane segments I-IV region of the EP3 receptor. The 2.0×10^5 clones derived from the cDNA library were screened under either high (Sambrook) or low stringency condition. […] This cDNA was transfected into COS-1 cells according to the same manner as in Example 1 (3).
After the COS-1 cells carring the plasmid DNA obtained in above (1) were cultured for 72 h, cells were harvested and cell membranes were prepared.

[3] = target: T2, EP3α receptor (MP660/KCR cells) (Mus musculus, UniProt P30557); experiment: Forskolin-stimulated cAMP synthesis in CHO cells stably expressing EP3α (MP660/KCR cells); assay type: cell-based
T2 construct: A full-length DNA clone having a 1,095 bp open reading frame, MP660, was thus obtained; expressed in transfected cells; host or cells: CHO-dhfr (lacking dihydrofolate reductase activity) cells; FERM BP-3803)
T2 sequence (P30557 1-365): T1 sequence (P30557 1-365)
Protocol: (§2) To obtain cells that stably express the receptor gene, cDNA transfection was conducted by the method described by Nakajima et al. [J. Biol. Chem., 267, 2437 (1992)] to establish a cell line. Specifically, the EcoRI fragment of MP660 was inserted to pdKCR-dhfr [S. Oikawa et al., Biochem. Biophys. Res. Commun., 164, 39 (1989)], a eukaryotic cell expression vector having the mouse dhfr gene as a selection marker. This plasmid was transfected to CHO-dhfr (lacking dihydrofolate reductase activity) cells [G. Urlaub and L. A. Chasin, Proc. Natl. Acad. Sci. USA, 77, 4216 (1980)] by the calcium phosphate method [F. L. Graham and A. J. van der Eb, Virology, 52, 456 (1973)]. The cells were subjected to selection culture in α-modified Eagle's medium [S. Oikawa et al., Biochem. Biophys. Res. Commun., 164, 39 (1989)] which contained no ribonucleoside and deoxyribonucleoside and which contained 100 unit/ml penicillin, 100 μg/ml streptomycin and 10% dialyzed bovine fetal serum (Cell Culture Laboratories). The cells which proliferated were cloned and clone cells were obtained. EP3α receptor cDNA transfection was confirmed by the RNA blotting method.

[4] = test system: EP3β receptor (MP653/KCR cells); experiment: Forskolin-stimulated cAMP synthesis in CHO cells stably expressing EP3β (MP653/KCR cells); assay type: cell-based, mouse
Protocol: as §2, with “of MP653” for “of MP660”, “to CHO-dhfr(lacking” for “to CHO-dhfr (lacking”, “method [(F.” for “method [F.”, “cloned to have” for “cloned and”, “clone cells. EP3β” for “clone cells were obtained. EP3α”, “method. Using thus-obtained CHO cells which constantly express the EP3β receptor [MP653/KCR cells; IFO 50397, FERM BP-4183], the effect of PGE2 on forskolin-stimulated cAMP synthesis or M&B28, 767, an EP3 -specific agonist was assessed.” for “method.”

EP2 = details: literature; cited from earlier work
EP2 receptor (MP412) = target: T3, EP2 receptor (MP412) (Mus musculus, UniProt P32240); experiment: cAMP assay in MP412-transfected COS-1 cells; assay type: cell-based
T3 construct: cAMP and inositol phosphate tests
T3 sequence (P32240 whole entry): as the sequence (P32240 whole entry, the tested form may be a part) above
Protocol: For cAMP assay, the plasmid DNA was transfected into COS-1 cells by the lipofection method (P. L. Felgner et al., Proc. Natl. Acad. Sci., 84, 7413 (1987)) and cultured for 72 h in a 24-well plate. Cyclic AMP levels in the cells were determined according to the method of Nakajima et al. (J. Biol. Chem. 267, 2437 (1992)).

EP3β receptor (MP653) = experiment: Ligand-binding assay, [3H]-PGE2 binding to MP653-transfected COS-1 cell membranes; set-up: species or system mouse
Text: as §1, with “MP653” for “MP660”, “Hirata et” for “Hirata”, “(1991)]. […] Also, the PGE2 receptor obtained was identified as the subtype EP3β receptor. The result of inhibitory activities of various ligands on the binding of [^3 H]-PGE2 to the MP653-transfected cell membrance was substantially the same as on the binding of [^3 H]-PGE2 to the MP660--transfected cell membrance obtained in Example 1.” for “(1991)].”

[5] = test system: membranes of untransfected cells; experiment: [3H]-PGE2 binding to membranes of untransfected COS-1 cells (control); details: untransfected COS-1 cell membranes
Text: as §1, with “(1991)]. […] Also, the PGE2 receptor obtained was identified as the subtype EP3α receptor.” for “(1991)].”
After the COS-1 cells carring the plasmid DNA obtained in above (1) were cultured for 72 h, cells were harvested and cell membranes were prepared. […] The lack of binding activity of butaprost in mouse EP2 might indicate that the action of butaprost is species specific or there may be other forms of EP2 receptor subtype.

Structure (SMILES)	competition for [3H]PGE2 binding [1]	inhibition of PGE2 binding by subtype ligands [2]	order of inhibition of [3H]PGE2 binding by unlabeled PGs [1]	order of inhibition of specific [3H]-PGE2 binding by unlabeled PG [2]	also measured
CC(=O)NNC(=O)N1Cc2ccccc2Oc2ccc(Cl)cc21 [SC-19220]	no competition was found at all	did not inhibit it	–	–	–
O=C(CC/C=C\CC[C@H]1C(=O)C[C@@H](O)[C@@H]1OCC(O)COc1ccccc1)Oc1ccc(NC(=O)c2ccccc2)cc1 (some centres unmarked) [GR 63799X]	specifically competed for the[^3 H]PGE2 binding with equal potency	–	–	–	potency in competing for [3H]PGE2 binding relative to PGE2 [1]: more potent than PGE2 itself
CC#CCC(C)[C@H](O)/C=C/[C@@H]1[C@H]2C/C(=C/CCCC(=O)O)C[C@H]2C[C@H]1O (some centres unmarked) [iloprost]	–	–	PGE2 =PGE1 >iloprost, a PGI2 analogue>PGF2α >PGD2	PGE2 (.largecircle.)=PGE1 (.circle-solid.)>>iloprost(.box-solid.), a stable PGI2 analogue ≥PGF2α (Δ)PGD2 (.quadrature.)	–
CCCCC[C@H](O)/C=C/[C@H]1[C@H](O)CC(=O)[C@@H]1CCCCCCC(=O)O [PGE1]	–	–	PGE2 =PGE1 >iloprost, a PGI2 analogue>PGF2α >PGD2	PGE2 (.largecircle.)=PGE1 (.circle-solid.)>>iloprost(.box-solid.), a stable PGI2 analogue ≥PGF2α (Δ)PGD2 (.quadrature.)	–
O=C(O)CCCCCC[C@H]1C(=O)CC[C@@H]1/C=C/[C@@H](O)COc1ccccc1 [M&B 28,767]	specifically competed for the[^3 H]PGE2 binding with equal potency	more weakly	–	–	potency in competing for [3H]PGE2 binding relative to PGE2 [1]: more potent than PGE2 itself; effect on forskolin-induced cAMP synthesis/accumulation ([3]; FIG. 3): inhibited forskolin-induced cAMP synthesis; potency in inhibiting forskolin-induced cAMP synthesis relative to PGE2 ([3]; FIG. 3): more potent than (PGE2; effect on forskolin-stimulated cAMP synthesis [4]: cAMP synthesis in MP653/KCR cells is inhibited; cross-reaction to EP2 (EP2): weak cross-reaction
CCCCC[C@H](O)/C=C/[C@H]1[C@H](O)CC(=O)[C@@H]1C/C=C\CCCC(=O)O [PGE2, prostaglandin E2]	–	–	PGE2 =PGE1 >iloprost, a PGI2 analogue>PGF2α >PGD2	PGE2 (.largecircle.)=PGE1 (.circle-solid.)>>iloprost(.box-solid.), a stable PGI2 analogue ≥PGF2α (Δ)PGD2 (.quadrature.)	effect on forskolin-induced cAMP synthesis/accumulation ([3]; FIG. 3): dosedependent decrease; IC50 ([3]; forskolin-induced, FIG. 3, read-out: IC50 (inhibition of forskolin-induced cAMP synthesis)): 0.1 nM; effect on forskolin-stimulated cAMP synthesis [4]: cAMP synthesis in MP653/KCR cells is inhibited; inhibition of forskolin-induced cAMP formation (EP2 receptor (MP412); forskolin): neither inhibited forskolin-induced cAMP formation; cAMP level (EP2 receptor (MP412); no forskolin stated, FIG. 9): dose-dependently increased cAMP level
CCCCC[C@H](O)/C=C/[C@H]1[C@H](O)CC(=O)[C@@H]1C/C=C\CCCC(=O)O [[3H]-PGE2]	–	–	–	–	specific binding of [3H]-labeled prostaglandin [1]: found to show specific binding; specific binding of [3H]-labeled prostaglandin (EP3β receptor (MP653)): found to show specific binding; specific binding of [3H]-labeled prostaglandin [2]: found to show specific binding; binding to membranes of untransfected cells ([5]; listed as [^3 H]-PGE2): almost negligible; binding to membranes of untransfected cells ([5]; listed as [^3 H]PGE2): did not bind to membranes of untransfected cells
CCCCC[C@H](O)/C=C/[C@@H]1[C@@H](C/C=C\CCCC(=O)O)[C@@H](O)C[C@H]1O [PGF2α]	–	–	PGE2 =PGE1 >iloprost, a PGI2 analogue>PGF2α >PGD2	PGE2 (.largecircle.)=PGE1 (.circle-solid.)>>iloprost(.box-solid.), a stable PGI2 analogue ≥PGF2α (Δ)PGD2 (.quadrature.)	–
CCCCC(C)(O)C/C=C/[C@H]1[C@H](O)CC(=O)[C@@H]1CCCCCCC(=O)OC (mixture of isomers) [misoprostol]	–	inhibited	–	–	–
CCCC1([C@H](O)C/C=C/[C@H]2[C@H](O)CC(=O)[C@@H]2CCCCCCC(=O)OC)CCC1 [butaprost]	no competition was found at all	did not inhibit it	–	–	–
CCCCC[C@H](O)/C=C/[C@H]1C(=O)C[C@H](O)[C@@H]1C/C=C\CCCC(=O)O [PGD2]	–	–	PGE2 =PGE1 >iloprost, a PGI2 analogue>PGF2α >PGD2	PGE2 (.largecircle.)=PGE1 (.circle-solid.)>>iloprost(.box-solid.), a stable PGI2 analogue ≥PGF2α (Δ)PGD2 (.quadrature.)	–
CS(=O)(=O)NC(=O)CCC/C=C\C[C@H]1C(=O)C[C@@H](O)[C@@H]1/C=C/[C@@H](O)COc1ccccc1 [sulprostone]	–	did not inhibit it	–	–	–
